Experimental data reported in ChEMBL document CHEMBL5506023, “Design, Synthesis, and Evaluation of Dihydropyrimidine Derivatives as Selective PDE1 Inhibitors for the Treatment of Liver Fibrosis” (J Med Chem, 2024).
Activity calls are given as the source filed them. No cut-off for these calls is given here.

Experiments:
[1] = biological target: Dual specificity calcium/calmodulin-dependent 3',5'-cyclic nucleotide phosphodiesterase 1C (Homo sapiens, UniProt Q14123); experiment: Inhibition of PDE1C2 (147 to 531 residues) (unknown origin) using 3H-cGMP as substrate incubated for 15 mins by liquid scintillation counter analysis
[2] = Half life in rat liver microsomes at 1.5 uM; format: ADME, Microsome
[3] = biological target: cGMP-dependent 3',5'-cyclic phosphodiesterase (Homo sapiens, UniProt O00408); experiment: Inhibition of PDE2A (580 to 919 residues) (unknown origin) using 3H-cGMP as substrate
[4] = biological target: cGMP-inhibited 3',5'-cyclic phosphodiesterase 3A (Homo sapiens, UniProt Q14432); experiment: Inhibition of PDE3A (679 to 1087 residues) (unknown origin) using 3H-cAMP as substrate
[5] = biological target: 3',5'-cyclic-AMP phosphodiesterase 4D (Homo sapiens, UniProt Q08499); experiment: Inhibition of PDE4D (86 to 413 residues) (unknown origin) using 3H-cAMP as substrate
[6] = biological target: cGMP-specific 3',5'-cyclic phosphodiesterase (Homo sapiens, UniProt O76074); experiment: Inhibition of PDE5A (535 to 860 residues) (unknown origin) using 3H-cGMP as substrate
[7] = biological target: High affinity 3',5'-cyclic-AMP phosphodiesterase 7A (Homo sapiens, UniProt Q13946); experiment: Inhibition of PDE7A (130 to 482 residues) (unknown origin) using 3H-cAMP as substrate
[8] = Selectivity index, ratio of IC50 for inhibition of PDE1C2 (147 to 531 residues) (unknown origin) using 3H-cGMP as substrate to IC50 for inhibition of PDE2A (580 to 919 residues) (unknown origin) using 3H-cGMP as substrate
[9] = Selectivity index, ratio of IC50 for inhibition of PDE1C2 (147 to 531 residues) (unknown origin) using 3H-cGMP as substrate to IC50 for inhibition of PDE3A (679 to 1087 residues) (unknown origin) using 3H-cAMP as substrate
[10] = Selectivity index, ratio of IC50 for inhibition of PDE1C2 (147 to 531 residues) (unknown origin) using 3H-cGMP as substrate to IC50 for inhibition of PDE4D (86 to 413 residues) (unknown origin) using 3H-cAMP as substrate
[11] = Selectivity index, ratio of IC50 for inhibition of PDE1C2 (147 to 531 residues) (unknown origin) using 3H-cGMP as substrate to IC50 for inhibition of PDE5A (535 to 860 residues) (unknown origin) using 3H-cGMP as substrate
[12] = Selectivity index, ratio of IC50 for inhibition of PDE1C2 (147 to 531 residues) (unknown origin) using 3H-cGMP as substrate to IC50 for inhibition of PDE7A (130 to 482 residues) (unknown origin) using 3H-cAMP as substrate
[13] = Selectivity index, ratio of IC50 for inhibition of PDE1C2 (147 to 531 residues) (unknown origin) using 3H-cGMP as substrate to IC50 for inhibition of PDE8A (480 to 820 residues) (unknown origin) using 3H-cAMP as substrate
[14] = Selectivity index, ratio of IC50 for inhibition of PDE1C2 (147 to 531 residues) (unknown origin) using 3H-cGMP as substrate to IC50 for inhibition of PDE9A (181 to 506 residues) (unknown origin) using 3H-cGMP as substrate
[15] = Selectivity index, ratio of IC50 for inhibition of PDE1C2 (147 to 531 residues) (unknown origin) using 3H-cGMP as substrate to IC50 for inhibition of PDE10A (449 to 770 residues) (unknown origin) using 3H-cAMP as substrate
[16] = Half life in Sprague-Dawley rat at 2.5 mg/kg,iv administration; format: ADME, organism-based; conditions: in vivo
[17] = Cmax in Sprague-Dawley rat at 2.5 mg/kg,iv administration; format: ADME, organism-based; conditions: in vivo
[18] = AUC (0 to infinity) in Sprague-Dawley rat at 2.5 mg/kg,iv administration; format: ADME, organism-based; conditions: in vivo
[19] = Observed volume of distribution at steady state in Sprague-Dawley rat at 2.5 mg/kg,iv administration; format: ADME, organism-based; conditions: in vivo, read-out: Vdss
Cytochrome P450 2C19 = Cytochrome P450 2C19 (Homo sapiens, UniProt P33261); experiment: Inhibition of CYP2C19 in human liver microsomes in presence of NADPH; format: ADME, Microsome
Cytochrome P450 2D6 = Cytochrome P450 2D6 (Homo sapiens, UniProt P10635); experiment: Inhibition of CYP2D6 in human liver microsomes in presence of NADPH; format: ADME, Microsome
[20] = Acute toxicity in Kunming mouse assessed as lethal dose at po administration for 14 days; format: organism-based; conditions: in vivo, 336 h, time 14 day
Rattus norvegicus [21] = experiment: Antifibrotic activity against bile duct ligation induced Sprague-Dawley rat liver fibrosis model assessed as reduction in AST level at 2.5 mg/kg,ip administrated once daily for 21 days; format: functional, organism-based; conditions: time 21.0 day
Rattus norvegicus [22] = experiment: Antifibrotic activity against bile duct ligation induced Sprague-Dawley rat liver fibrosis model assessed as reduction in total bile acid level at 2.5 mg/kg,ip administrated once daily for 21 days; format: functional, organism-based; conditions: time 21.0 day
Rattus norvegicus [23] = experiment: Antifibrotic activity against bile duct ligation induced Sprague-Dawley rat liver fibrosis model assessed as reduction in liver damage at 2.5 mg/kg,ip administrated once daily for 21 days by hematoxylin and eosin staining based analysis; format: functional, organism-based; conditions: time 21.0 day
Rattus norvegicus [24] = experiment: Antifibrotic activity against bile duct ligation induced Sprague-Dawley rat liver fibrosis model assessed as reduction in fibrotic lesion at 2.5 mg/kg,ip administrated once daily for 21 days by hematoxylin and eosin staining based analysis; format: functional, organism-based; conditions: time 21.0 day
Rattus norvegicus [25] = experiment: Antifibrotic activity against bile duct ligation induced Sprague-Dawley rat liver fibrosis model assessed as reduction in alpha-smooth muscle actin level in liver at 2.5 mg/kg,ip administrated once daily for 21 days by immunofluorescence staining based analysis; format: functional, organism-based; conditions: time 21.0 day
Rattus norvegicus [26] = experiment: Antifibrotic activity against bile duct ligation induced Sprague-Dawley rat liver fibrosis model assessed as downregulation of alpha-SMA expression in liver at 2.5 mg/kg,ip administrated once daily for 21 days by Western blotting analysis; format: functional, organism-based; conditions: time 21.0 day
Rattus norvegicus [27] = experiment: Antifibrotic activity against bile duct ligation induced Sprague-Dawley rat liver fibrosis model assessed as downregulation of collagen I expression in liver at 2.5 mg/kg,ip administrated once daily for 21 days by Western blotting analysis; format: functional, organism-based; conditions: time 21.0 day
Rattus norvegicus [28] = experiment: Antifibrotic activity against bile duct ligation induced Sprague-Dawley rat liver fibrosis model assessed as increase in cAMP level in liver at 2.5 mg/kg,ip administrated once daily for 21 days by ELISA; format: functional, organism-based; conditions: time 21.0 day
LX-2 [29] = experiment: Antifibrotic activity against TGF-beta induced human LX-2 cell activation assessed as downregulation of collagen-I expression incubated for 48 hrs by Western blotting analysis; format: functional, cell-based
LX-2 [30] = experiment: Antifibrotic activity against TGF-beta induced human LX-2 cell activation assessed as reduction in cell proliferation at 2.5 to 10 uM incubated for 48 hrs by Edu staining based analysis; format: functional; conditions: dose 2.5-10 µM

Chain of High affinity 3',5'-cyclic-AMP phosphodiesterase 7A (Q13946 whole entry, the tested form may be a part): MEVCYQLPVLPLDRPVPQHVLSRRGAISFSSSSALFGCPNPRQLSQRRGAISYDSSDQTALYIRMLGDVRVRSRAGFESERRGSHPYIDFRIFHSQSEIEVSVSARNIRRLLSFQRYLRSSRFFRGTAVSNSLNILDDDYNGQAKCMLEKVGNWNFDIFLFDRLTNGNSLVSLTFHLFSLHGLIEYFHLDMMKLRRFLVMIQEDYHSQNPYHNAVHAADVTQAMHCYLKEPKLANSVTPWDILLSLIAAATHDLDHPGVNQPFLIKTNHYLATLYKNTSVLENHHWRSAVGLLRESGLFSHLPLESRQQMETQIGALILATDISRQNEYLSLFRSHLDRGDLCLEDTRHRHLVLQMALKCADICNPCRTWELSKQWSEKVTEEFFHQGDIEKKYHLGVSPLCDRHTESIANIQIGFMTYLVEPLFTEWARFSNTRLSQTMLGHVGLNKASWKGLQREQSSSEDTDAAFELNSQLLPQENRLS
Chain of Cytochrome P450 2C19 (P33261 whole entry): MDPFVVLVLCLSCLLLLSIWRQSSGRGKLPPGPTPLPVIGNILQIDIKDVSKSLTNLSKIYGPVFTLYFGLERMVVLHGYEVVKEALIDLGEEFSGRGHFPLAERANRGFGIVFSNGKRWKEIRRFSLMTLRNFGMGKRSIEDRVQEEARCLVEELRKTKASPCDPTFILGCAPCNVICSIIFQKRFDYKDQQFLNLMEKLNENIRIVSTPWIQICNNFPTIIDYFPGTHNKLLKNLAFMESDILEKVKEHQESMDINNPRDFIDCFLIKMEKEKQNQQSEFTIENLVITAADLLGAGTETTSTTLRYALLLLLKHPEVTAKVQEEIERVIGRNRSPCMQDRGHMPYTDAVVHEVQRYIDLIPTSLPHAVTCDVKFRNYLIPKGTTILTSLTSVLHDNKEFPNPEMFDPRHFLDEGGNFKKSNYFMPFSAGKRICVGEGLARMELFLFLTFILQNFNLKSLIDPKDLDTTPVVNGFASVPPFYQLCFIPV
Chain of Dual specificity calcium/calmodulin-dependent 3',5'-cyclic nucleotide phosphodiesterase 1C (Q14123 whole entry, the tested form may be a part): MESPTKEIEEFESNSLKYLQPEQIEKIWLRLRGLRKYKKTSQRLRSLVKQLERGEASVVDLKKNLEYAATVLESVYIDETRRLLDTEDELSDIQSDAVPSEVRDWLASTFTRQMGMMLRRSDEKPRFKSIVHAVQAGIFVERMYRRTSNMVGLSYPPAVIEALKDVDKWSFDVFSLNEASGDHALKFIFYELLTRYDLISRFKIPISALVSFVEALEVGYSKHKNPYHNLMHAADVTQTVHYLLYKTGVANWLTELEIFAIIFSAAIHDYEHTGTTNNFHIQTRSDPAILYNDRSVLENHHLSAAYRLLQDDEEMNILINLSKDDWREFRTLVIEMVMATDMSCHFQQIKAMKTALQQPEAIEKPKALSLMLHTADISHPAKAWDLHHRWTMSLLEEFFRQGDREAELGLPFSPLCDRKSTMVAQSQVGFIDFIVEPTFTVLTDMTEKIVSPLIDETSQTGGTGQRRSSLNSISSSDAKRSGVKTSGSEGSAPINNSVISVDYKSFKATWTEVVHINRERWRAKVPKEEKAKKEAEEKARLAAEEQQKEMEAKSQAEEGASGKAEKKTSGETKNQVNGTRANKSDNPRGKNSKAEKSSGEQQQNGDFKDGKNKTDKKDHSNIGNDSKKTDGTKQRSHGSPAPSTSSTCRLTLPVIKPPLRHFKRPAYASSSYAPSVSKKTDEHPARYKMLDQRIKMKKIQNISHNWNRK
Chain of cGMP-dependent 3',5'-cyclic phosphodiesterase (O00408 whole entry, the tested form may be a part): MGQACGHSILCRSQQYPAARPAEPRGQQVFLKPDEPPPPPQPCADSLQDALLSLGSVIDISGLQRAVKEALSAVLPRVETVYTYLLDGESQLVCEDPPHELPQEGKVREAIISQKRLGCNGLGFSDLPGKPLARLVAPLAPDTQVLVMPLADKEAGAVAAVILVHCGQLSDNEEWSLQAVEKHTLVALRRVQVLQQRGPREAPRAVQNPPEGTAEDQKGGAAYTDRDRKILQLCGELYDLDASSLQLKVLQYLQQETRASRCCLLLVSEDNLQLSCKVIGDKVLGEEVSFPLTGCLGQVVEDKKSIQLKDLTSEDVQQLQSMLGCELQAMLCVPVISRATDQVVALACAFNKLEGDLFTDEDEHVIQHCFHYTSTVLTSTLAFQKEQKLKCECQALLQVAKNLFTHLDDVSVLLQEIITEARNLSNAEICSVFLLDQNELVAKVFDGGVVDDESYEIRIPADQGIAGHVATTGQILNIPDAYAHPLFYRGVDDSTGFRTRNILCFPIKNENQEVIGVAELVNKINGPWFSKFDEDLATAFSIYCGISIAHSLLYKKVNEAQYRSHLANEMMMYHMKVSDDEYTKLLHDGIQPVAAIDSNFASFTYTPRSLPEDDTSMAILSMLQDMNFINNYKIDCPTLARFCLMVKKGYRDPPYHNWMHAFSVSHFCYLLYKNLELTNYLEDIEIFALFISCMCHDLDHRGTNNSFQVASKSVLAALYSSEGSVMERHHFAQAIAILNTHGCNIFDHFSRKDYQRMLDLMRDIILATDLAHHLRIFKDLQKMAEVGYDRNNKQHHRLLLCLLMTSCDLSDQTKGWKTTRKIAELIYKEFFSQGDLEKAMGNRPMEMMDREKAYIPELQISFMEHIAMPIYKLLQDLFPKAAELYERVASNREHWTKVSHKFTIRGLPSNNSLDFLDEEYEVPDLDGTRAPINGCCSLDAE
Chain of Cytochrome P450 2D6 (P10635 whole entry): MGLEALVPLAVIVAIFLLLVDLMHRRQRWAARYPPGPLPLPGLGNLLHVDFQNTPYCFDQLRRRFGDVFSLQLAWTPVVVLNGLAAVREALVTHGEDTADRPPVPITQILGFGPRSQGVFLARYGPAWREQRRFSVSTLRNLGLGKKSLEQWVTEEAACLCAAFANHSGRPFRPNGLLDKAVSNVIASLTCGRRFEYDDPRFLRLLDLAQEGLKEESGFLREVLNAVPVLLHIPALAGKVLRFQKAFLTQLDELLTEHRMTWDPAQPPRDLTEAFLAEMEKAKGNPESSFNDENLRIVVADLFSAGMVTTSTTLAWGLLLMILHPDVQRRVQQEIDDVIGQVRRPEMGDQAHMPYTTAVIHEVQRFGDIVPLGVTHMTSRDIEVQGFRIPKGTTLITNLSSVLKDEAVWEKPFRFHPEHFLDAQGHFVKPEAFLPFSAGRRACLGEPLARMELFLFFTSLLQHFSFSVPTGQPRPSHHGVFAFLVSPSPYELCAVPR
Chain of 3',5'-cyclic-AMP phosphodiesterase 4D (Q08499 whole entry, the tested form may be a part): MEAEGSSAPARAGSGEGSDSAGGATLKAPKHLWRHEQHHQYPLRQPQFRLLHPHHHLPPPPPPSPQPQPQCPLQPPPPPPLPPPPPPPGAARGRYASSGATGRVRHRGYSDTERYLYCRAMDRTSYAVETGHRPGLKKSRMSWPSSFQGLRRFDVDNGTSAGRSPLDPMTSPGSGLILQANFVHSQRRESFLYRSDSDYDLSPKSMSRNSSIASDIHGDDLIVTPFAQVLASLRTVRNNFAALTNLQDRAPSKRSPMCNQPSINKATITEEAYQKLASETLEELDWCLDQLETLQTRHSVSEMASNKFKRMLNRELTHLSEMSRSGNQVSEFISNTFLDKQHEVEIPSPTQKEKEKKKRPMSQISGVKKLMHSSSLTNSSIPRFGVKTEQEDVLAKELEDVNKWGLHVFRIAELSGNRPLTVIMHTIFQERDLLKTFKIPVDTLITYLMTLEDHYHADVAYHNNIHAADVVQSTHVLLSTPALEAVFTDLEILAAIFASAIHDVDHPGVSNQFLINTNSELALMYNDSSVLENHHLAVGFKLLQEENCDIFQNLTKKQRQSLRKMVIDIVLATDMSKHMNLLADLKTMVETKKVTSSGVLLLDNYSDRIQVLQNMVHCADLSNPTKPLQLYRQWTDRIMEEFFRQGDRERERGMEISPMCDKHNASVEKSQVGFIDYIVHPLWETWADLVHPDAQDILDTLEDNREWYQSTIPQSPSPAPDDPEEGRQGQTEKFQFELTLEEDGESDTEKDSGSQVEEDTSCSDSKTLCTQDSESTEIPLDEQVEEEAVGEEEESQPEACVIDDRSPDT
Chain of cGMP-inhibited 3',5'-cyclic phosphodiesterase 3A (Q14432 whole entry, the tested form may be a part): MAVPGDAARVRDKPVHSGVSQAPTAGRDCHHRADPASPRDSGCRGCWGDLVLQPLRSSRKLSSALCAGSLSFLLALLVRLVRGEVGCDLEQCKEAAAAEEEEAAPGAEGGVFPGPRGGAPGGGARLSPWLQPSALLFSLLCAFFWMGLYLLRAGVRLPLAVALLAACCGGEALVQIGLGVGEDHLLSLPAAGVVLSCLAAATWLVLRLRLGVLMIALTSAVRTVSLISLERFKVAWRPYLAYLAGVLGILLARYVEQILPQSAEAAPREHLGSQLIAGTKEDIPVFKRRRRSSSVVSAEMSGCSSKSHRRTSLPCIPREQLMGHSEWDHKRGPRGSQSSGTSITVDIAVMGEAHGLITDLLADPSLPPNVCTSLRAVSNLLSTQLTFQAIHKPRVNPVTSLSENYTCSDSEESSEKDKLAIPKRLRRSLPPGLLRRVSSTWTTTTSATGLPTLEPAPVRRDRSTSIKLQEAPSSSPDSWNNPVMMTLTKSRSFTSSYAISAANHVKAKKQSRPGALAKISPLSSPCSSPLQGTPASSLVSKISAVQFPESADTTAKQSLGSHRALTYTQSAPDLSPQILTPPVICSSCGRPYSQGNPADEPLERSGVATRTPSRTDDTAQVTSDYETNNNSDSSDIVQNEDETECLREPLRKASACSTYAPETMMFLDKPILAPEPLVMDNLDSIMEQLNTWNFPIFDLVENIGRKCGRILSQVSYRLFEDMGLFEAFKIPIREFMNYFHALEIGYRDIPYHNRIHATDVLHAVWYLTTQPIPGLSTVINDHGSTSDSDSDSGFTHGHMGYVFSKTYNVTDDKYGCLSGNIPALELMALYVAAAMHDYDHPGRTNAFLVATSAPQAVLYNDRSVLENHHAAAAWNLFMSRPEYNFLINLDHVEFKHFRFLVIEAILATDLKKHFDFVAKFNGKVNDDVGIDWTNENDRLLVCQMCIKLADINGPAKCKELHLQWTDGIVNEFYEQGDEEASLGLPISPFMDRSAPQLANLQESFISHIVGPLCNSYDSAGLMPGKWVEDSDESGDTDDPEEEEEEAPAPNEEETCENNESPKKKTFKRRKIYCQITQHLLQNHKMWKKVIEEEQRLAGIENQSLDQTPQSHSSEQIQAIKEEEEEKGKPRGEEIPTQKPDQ

CC1=C(C(=O)OCC2CCCCC2)C(c2ccc(OC(F)F)c(OCC3CC3)c2)N(C(=O)SCc2ccccc2)C(=O)N1 (configuration not stated)
IC50 [1]: 10 nM | half-life at 1.5 µM [2]: 0.235 h | IC50 [3]: 3540 nM | IC50 [4]: > 5000 nM | IC50 [5]: 2050 nM | IC50 [6]: 1680 nM | IC50 [7]: > 5000 nM | Ratio IC50 [8]: 354 | Ratio IC50 [9]: > 500 | Ratio IC50 [10]: 205 | Ratio IC50 [11]: 168 | Ratio IC50 [12]: > 500 | Ratio IC50 [13]: 176 | Ratio IC50 [14]: 210 | Ratio IC50 [15]: 60 | half-life [16]: 7.51 h | Cmax [17]: 25000 ng/mL | AUC(0-inf) [18]: 6320 ng·h/mL | Vd [19]: 0.698 L/kg | IC50 (Cytochrome P450 2C19): > 25000 nM | IC50 (Cytochrome P450 2D6): > 25000 nM | LD [20]: > 1500 mg/kg | Activity (Rattus norvegicus [21]): Active | Activity (Rattus norvegicus [22]): Active | Activity (Rattus norvegicus [23]): Active | Activity (Rattus norvegicus [24]): Active | Activity (Rattus norvegicus [25]): Active | Activity (Rattus norvegicus [26]): Active | Activity (Rattus norvegicus [27]): Active | Activity (Rattus norvegicus [28]): Active | Activity (LX-2 [29]): Dose-Dependent Effect | Activity (LX-2 [30]): Active
